Assay results from US10501451B2, “Selective NR2B antagonists” (BRISTOL-MYERS SQUIBB COMPANY, priority 2015, dated 2019).

Assays:
[1] = biological target: NR2B-subtype NMDA receptors (Rattus norvegicus (Rat), UniProt P35439+Q00960); assay: Radioligand binding assay (3H Ro 25-6981 competition, rat forebrain membranes); conditions: 3H Ro 25-6981 (4 nM), P-2, read-out: NR2B Binding Ki
Protocol: Radioligand Binding Assay. Binding experiments to determine binding to NR2B-subtype NMDA receptors were performed on forebrains of 8-10 weeks old male Sprague Dawley rats (Harlan, Netherlands) using ^3H Ro 25-6981 (Mutel V; Buchy D; Klingelschmidt A; Messer J; Bleuel Z; Kemp J A; Richards J G. Journal of Neurochemistry, 1998, 70(5):2147-2155. Rats were decapitated without anesthesia using a Guillotine (approved by animal ethics committee) and the harvested brains were snap-frozen and stored at −80° C. for 3-6 months for membrane preparation.
For membrane preparation, rat forebrains were thawed on ice for 20 minutes in homogenization buffer composed of 50 mM KH2PO4 (pH adjusted to 7.4 with KOH), 1 mM EDTA, 0.005% Triton X 100 and protease inhibitor cocktail (Sigma Aldrich). Thawed brains were homogenized using a Dounce homogenizer and centrifuged at 48000×g for 20 min. The pellet was resuspended in cold buffer and homogenized again using a Dounce homogenizer. Subsequently, the homogenate was aliquoted, snap-frozen and stored at −80° C. for not more than 3-4 months.
To perform the competition binding assay, thawed membrane homogenate was added to each well of a 96-well plate (20 μg/well). The experimental compounds were serially diluted in 100% DMSO and added to each row of the assay plate to achieve desired compound concentrations, keeping the DMSO concentration in the assay plate at 1.33% of the final reaction volume. Next, ^3H Ro 25-6981 (4 nM) was added to the assay plate. After incubation for 1 hr at room temperature, the membrane bound radioligand was harvested on to GF/B filter plates (treated with 0.5% PEI for 1 hr at room temperature). The filter plates were dried at 50° C. for 20 mins, incubated with microscint 20 for 10 minutes and finally, the counts were read on TopCount (Perkin Elmer).

[2] = biological target: brain-resident NR2B-subtype receptors (Mus musculus (Mouse), UniProt P35438+Q01097); assay: Ex vivo occupancy assay; type: in vivo; conditions: animals after dosing
Protocol: Ex Vivo Occupancy Assay. […] 7-9 weeks old male CD-1 mice were dosed intravenously in a vehicle consisting of 10% dimethylacetamide, 40% PEG-400, 30% hydroxypropyl betacyclodextrin, and 30% water with experimental compounds and the forebrains were harvested 15 minutes post-dosing by decapitation. The brain samples were immediately snap-frozen and stored at −80° C. On the following day, the dosed brain samples were thawed on ice for 15-20 minutes followed by homogenization using Polytron for 10 seconds in cold homogenization buffer composed of 50 mM KH2PO4 (pH adjusted to 7.4 with KOH), 1 mM EDTA, 0.005% Triton X 100 and protease inhibitor cocktail (Sigma Aldrich). The crude homogenates were further homogenized using a Dounce homogenizer and the homogenized membrane aliquots from all animals were flash-frozen and stored at −80° C. until further use. The whole homogenization process was performed on ice. For determining occupancy, the membrane homogenates were first thawed on ice and then needle-homogenized using a 25 gauge needle. The homogenized membrane (6.4 mg/ml) was added to a 96-well plate followed by addition of ^3H Ro 25-6981 (6 nM). The reaction mixture was incubated for 5 minutes on a shaker at 4° C. and then harvested onto GF/B filter plates (treated with 0.5% PEI for 1 hr at room temperature). The filter plates were dried at 50° C. for 20 mins, incubated with microscint 20 for 10 minutes and read on TopCount (Perkin Elmer). Each dose or compound group consisted of 4-5 animals. The control group of animals was dosed with vehicle alone. Membrane from each animal was added in triplicates to the assay plate. Non-specific binding was determined using 10 μM Ro 25-6981 added to the wells containing membrane homogenates from vehicle-dosed animals. Specific counts/minute was converted to % occupancy at each dose of a compound for each animal using the following equation: […]
Drug levels were determined by mass spectroscopy in the usual manner. Drug levels in the blood plasma were 572 nM in at this dose, and drug levels in the homogenized brain tissue were 863 nM.

brain-resident NR2B-subtype receptors, sequence (Q01097 27-1482, other chains not shown): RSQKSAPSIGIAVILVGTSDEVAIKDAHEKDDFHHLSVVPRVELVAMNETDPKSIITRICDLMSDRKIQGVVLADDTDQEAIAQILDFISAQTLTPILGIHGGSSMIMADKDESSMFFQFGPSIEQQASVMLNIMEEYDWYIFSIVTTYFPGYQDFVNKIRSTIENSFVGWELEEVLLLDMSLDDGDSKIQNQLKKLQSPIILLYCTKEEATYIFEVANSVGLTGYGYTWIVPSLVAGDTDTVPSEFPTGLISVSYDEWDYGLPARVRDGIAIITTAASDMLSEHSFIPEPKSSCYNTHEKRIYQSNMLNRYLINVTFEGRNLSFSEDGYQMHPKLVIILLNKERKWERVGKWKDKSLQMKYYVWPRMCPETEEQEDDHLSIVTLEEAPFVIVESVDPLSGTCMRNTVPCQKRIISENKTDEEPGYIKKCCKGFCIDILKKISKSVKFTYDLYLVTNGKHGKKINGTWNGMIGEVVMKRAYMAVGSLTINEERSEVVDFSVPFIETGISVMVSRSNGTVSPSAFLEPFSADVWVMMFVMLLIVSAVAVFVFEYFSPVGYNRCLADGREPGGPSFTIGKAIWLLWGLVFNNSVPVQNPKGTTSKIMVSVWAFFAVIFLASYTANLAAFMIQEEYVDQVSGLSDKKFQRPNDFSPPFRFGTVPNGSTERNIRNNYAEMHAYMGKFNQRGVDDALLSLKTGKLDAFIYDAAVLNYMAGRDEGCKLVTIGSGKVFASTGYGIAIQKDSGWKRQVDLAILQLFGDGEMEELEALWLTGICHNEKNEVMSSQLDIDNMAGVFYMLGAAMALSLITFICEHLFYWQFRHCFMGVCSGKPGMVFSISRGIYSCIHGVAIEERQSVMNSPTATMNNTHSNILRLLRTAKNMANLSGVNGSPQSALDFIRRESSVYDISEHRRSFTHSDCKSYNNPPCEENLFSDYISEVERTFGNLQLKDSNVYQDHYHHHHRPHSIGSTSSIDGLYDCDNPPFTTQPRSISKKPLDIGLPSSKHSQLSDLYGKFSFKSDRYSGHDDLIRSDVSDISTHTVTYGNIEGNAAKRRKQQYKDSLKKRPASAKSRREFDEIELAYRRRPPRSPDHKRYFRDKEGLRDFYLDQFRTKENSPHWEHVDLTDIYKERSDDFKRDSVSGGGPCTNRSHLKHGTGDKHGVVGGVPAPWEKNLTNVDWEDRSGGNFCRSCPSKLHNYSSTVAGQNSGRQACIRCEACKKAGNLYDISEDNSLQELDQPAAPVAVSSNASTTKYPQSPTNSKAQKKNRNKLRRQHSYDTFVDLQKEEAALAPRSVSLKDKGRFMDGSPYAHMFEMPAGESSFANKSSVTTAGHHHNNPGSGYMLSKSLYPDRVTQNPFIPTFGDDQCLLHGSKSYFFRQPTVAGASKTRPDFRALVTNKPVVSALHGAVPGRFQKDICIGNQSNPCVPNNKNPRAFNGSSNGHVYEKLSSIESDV
NR2B-subtype NMDA receptors, sequence (Q00960 27-1482, other chains not shown): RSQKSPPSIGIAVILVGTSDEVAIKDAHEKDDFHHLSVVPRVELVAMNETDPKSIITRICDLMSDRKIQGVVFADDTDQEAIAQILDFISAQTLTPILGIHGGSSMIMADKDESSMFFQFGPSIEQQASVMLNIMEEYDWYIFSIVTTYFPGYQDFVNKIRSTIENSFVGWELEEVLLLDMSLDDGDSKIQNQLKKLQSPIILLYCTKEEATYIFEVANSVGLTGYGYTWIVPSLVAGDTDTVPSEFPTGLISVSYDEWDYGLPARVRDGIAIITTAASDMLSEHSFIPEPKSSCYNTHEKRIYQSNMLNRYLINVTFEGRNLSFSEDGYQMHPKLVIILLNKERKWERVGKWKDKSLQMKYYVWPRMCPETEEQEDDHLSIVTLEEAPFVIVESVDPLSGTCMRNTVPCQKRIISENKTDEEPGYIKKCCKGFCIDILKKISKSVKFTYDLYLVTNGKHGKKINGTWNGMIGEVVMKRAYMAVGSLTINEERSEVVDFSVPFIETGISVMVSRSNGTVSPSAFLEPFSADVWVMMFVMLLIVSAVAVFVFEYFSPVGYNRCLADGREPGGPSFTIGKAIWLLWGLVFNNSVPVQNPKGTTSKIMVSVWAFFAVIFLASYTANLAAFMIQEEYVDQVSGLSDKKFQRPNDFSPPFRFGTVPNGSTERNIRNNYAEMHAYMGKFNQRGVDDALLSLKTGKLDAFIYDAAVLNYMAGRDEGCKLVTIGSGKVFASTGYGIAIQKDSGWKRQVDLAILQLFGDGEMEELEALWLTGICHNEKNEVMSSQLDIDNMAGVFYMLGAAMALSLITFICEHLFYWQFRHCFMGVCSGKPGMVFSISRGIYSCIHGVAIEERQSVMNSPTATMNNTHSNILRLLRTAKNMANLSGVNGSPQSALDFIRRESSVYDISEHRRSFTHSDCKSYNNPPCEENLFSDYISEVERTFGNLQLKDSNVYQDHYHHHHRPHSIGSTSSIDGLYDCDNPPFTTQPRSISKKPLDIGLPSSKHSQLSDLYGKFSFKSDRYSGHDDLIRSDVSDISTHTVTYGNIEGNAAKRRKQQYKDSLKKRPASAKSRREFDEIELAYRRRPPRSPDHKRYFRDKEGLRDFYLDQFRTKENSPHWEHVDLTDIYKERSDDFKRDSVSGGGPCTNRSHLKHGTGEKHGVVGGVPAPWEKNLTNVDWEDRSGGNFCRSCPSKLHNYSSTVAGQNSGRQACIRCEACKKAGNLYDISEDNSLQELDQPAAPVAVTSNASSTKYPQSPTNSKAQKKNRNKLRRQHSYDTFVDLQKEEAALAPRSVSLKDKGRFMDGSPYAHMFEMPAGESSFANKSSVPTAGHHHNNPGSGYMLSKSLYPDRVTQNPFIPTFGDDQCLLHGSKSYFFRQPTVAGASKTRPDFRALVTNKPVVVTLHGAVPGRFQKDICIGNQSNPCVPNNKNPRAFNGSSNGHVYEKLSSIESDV

## Cc1ccc(CN2OCC(N3CCC(c4ccc(O)cc4)CC3)C2=O)cc1 (single isomer, unassigned) [Example 2, P-2, 4-(4-(4-hydroxyphenyl)piperidin-1-yl)-2-(4-methylbenzyl)isoxazolidin-3-one]
[1]
  Ki: 2.79 nM
[2]
  occupancy of brain-resident NR2B-subtype receptors after dosing (in words): occupies brain-resident NR2B-subtype receptors
